US12162893B2 (Erasca, Inc., priority 2020, dated 2024)

Biological target: T1, mutant G12C K-RAS (Homo sapiens, UniProt P01116, G12C)
T1 construct: made in house; host or cells: E. coli BL21
Assay: covalent adduct formation (CAF) with mutant G12C K-RAS
Type: binding
Conditions: Table 6; 10 μM, 1 h
Description: Embodiments disclosed herein are further illustrated by the following examples in Tables 1-4 and the Examples hereinbelow. The Tables indicate the compound number, structure, the observed mass spectral molecular weight peak, and covalent adduct formation (CAF) with a mutant G12C K-RAS after 60 minutes at a concentration of 10 micromolar.

Row | % CAF @ 10 μM,1 h [%] | SMILES
1 | 94.8 | C=CC(=O)N1C[C@H](C)N(c2nc(=O)n3c4c(c(-c5ccc(F)cc5F)c(Cl)cc24)OC[C@@H]3CN2CCN(C)CC2)C[C@H]1C [Example 257, (3S)-7-((2S,5R)-4-acryloyl-2,5-dimethylpiperazin-1-yl)-9-chloro-10-(2,4-difluorophenyl)-3-((4-methylpiperazin-1-yl)methyl)-2H-[1,4]oxazino[2,3,4-ij]quinazolin-5(3H)-one]
2 | 17.7 | C=CC(=O)N1C[C@H](C)N(c2nc(=O)n3c4c(c(-c5ccc(F)cc5F)c(Cl)cc24)O[C@@H](CCCN2CCOCC2)C3)C[C@H]1C [Example 258, (2S)-7-((2S,5R)-4-acryloyl-2,5-dimethylpiperazin-1-yl)-9-chloro-10-(2,4-difluorophenyl)-2-(3-morpholinopropyl)-2,3-dihydro-5H-[1,4]oxazino[2,3,4-ij]quinazolin-5-one]
3 | 90.2 | C=CC(=O)N1C[C@H](C)N(c2nc(=O)n3c4c(c(-c5ccc(F)cc5F)c(Cl)cc24)OC[C@@H]3CCCN2CCN(C)CC2)C[C@H]1C [Example 259, (3S)-7-((2S,5R)-4-acryloyl-2,5-dimethylpiperazin-1-yl)-9-chloro-10-(2,4-difluorophenyl)-3-(3-(4-methylpiperazin-1-yl)propyl)-2,3-dihydro-5H-[1,4]oxazino[2,3,4-ij]quinazolin-5-one]
4 | 48.4 | C=CC(=O)N1C[C@H](C)N(c2nc(=O)n3c4c(c(-c5ccc(F)cc5F)c(Cl)cc24)O[C@H](CCCN2CCN(C)CC2)C3)C[C@H]1C [Example 260, (2R)-7-((2S,5R)-4-acryloyl-2,5-dimethylpiperazin-1-yl)-9-chloro-10-(2,4-difluorophenyl)-2-(3-(4-methylpiperazin-1-yl)propyl)-2,3-dihydro-5H-[1,4]oxazino[2,3,4-ij]quinazolin-5-one]
5 | 41.6 | C=CC(=O)N1C[C@H](C)N(c2nc(=O)n3c4c(c(-c5ccc(F)cc5F)c(Cl)cc24)O[C@@H](CCCN2CCN(C)CC2)C3)C[C@H]1C [Example 263, (2S)-7-((2S,5R)-4-acryloyl-2,5-dimethylpiperazin-1-yl)-9-chloro-10-(2,4-difluorophenyl)-2-(3-(4-methylpiperazin-1-yl)propyl)-2,3-dihydro-5H-[1,4]oxazino[2,3,4-ij]quinazolin-5-one]
6 | 97.4 | C=CC(=O)N1C[C@H](C)N(c2nc(=O)n3c4c(c(-c5ccc(F)cc5F)c(Cl)cc24)OC[C@H]3CCCN2CCN(C)CC2)C[C@H]1C [Example 264, (3R)-7-((2S,5R)-4-acryloyl-2,5-dimethylpiperazin-1-yl)-9-chloro-10-(2,4-difluorophenyl)-3-(3-(4-methylpiperazin-1-yl)propyl)-2,3-dihydro-5H-[1,4]oxazino[2,3,4-ij]quinazolin-5-one]
7 | 59.2 | C=CC(=O)N1C[C@H](C)N(c2nc(=O)n3c4c(c(-c5ccc(F)cc5F)c(Cl)cc24)OC[C@@H]3CCCN2C[C@@H]3C[C@H]2CO3)C[C@H]1C [Example 266, (3S)-3-(3-((1S,4S)-2-oxa-5-azabicyclo[2.2.1]heptan-5-yl)propyl)-7-((2S,5R)-4-acryloyl-2,5-dimethylpiperazin-1-yl)-9-chloro-10-(2,4-difluorophenyl)-2,3-dihydro-5H-[1,4]oxazino[2,3,4-ij]quinazolin-5-one]
8 | 13.6 | C=CC(=O)N1C[C@H](C)N(c2nc(=O)n3c4c(c(-c5ccc(F)cc5F)c(Cl)cc24)OC[C@H]3Cn2ccnc2)C[C@H]1C [Example 267, (3R)-3-((1H-imidazol-1-yl)methyl)-7-((2S,5R)-4-acryloyl-2,5-dimethylpiperazin-1-yl)-9-chloro-10-(2,4-difluorophenyl)-2H-[1,4]oxazino[2,3,4-ij]quinazolin-5(3H)-one]
9 | 68 | C=CC(=O)N1C[C@H](C)N(c2nc(=O)n3c4c(c(-c5ccc(F)cc5F)c(Cl)cc24)OC[C@H]3CN2CCS(=O)(=O)CC2)C[C@H]1C [Example 268, (3R)-7-((2S,5R)-4-acryloyl-2,5-dimethylpiperazin-1-yl)-9-chloro-10-(2,4-difluorophenyl)-3-((1,1-dioxidothiomorpholino)methyl)-2H-[1,4]oxazino[2,3,4-ij]quinazolin-5(3H)-one]
10 | 94.6 | C=CC(=O)N1C[C@H](C)N(c2nc(=O)n3c4c(c(-c5ccc(F)cc5F)c(Cl)cc24)OC[C@@H]3CN2CCS(=O)(=O)CC2)C[C@H]1C [Example 269, (3S)-7-((2S,5R)-4-acryloyl-2,5-dimethylpiperazin-1-yl)-9-chloro-10-(2,4-difluorophenyl)-3-((1,1-dioxidothiomorpholino)methyl)-2H-[1,4]oxazino[2,3,4-ij]quinazolin-5(3H)-one]
11 | 96.4 | C=CC(=O)N1C[C@H](C)N(c2nc(=O)n3c4c(c(-c5ccc(F)cc5F)c(Cl)cc24)OC[C@H]3CCCN2C[C@@H]3C[C@H]2CO3)C[C@H]1C [Example 270, (3R)-3-(3-((1S,4S)-2-oxa-5-azabicyclo[2.2.1]heptan-5-yl)propyl)-7-((2S,5R)-4-acryloyl-2,5-dimethylpiperazin-1-yl)-9-chloro-10-(2,4-difluorophenyl)-2H-[1,4]oxazino[2,3,4-ij]quinazolin-5(3H)-one]
12 | 93.6 | C=CC(=O)N1C[C@H](C)N(c2nc(=O)n3c4c(c(-c5ccc(F)cc5F)c(Cl)cc24)OC[C@H]3CCCN2CCC(F)(F)C2)C[C@H]1C [Example 271, (3R)-7-((2S,5R)-4-acryloyl-2,5-dimethylpiperazin-1-yl)-9-chloro-10-(2,4-difluorophenyl)-3-(3-(3,3-difluoropyrrolidin-1-yl)propyl)-2,3-dihydro-5H-[1,4]oxazino[2,3,4-ij]quinazolin-5-one]
13 | 89.4 | C=CC(=O)N1C[C@H](C)N(c2nc(=O)n3c4c(c(-c5ccc(F)cc5F)c(Cl)cc24)OC[C@H]3CCCn2ccnc2)C[C@H]1C [Example 272, (3R)-3-(3-(1H-imidazol-1-yl)propyl)-7-((2S,5R)-4-acryloyl-2,5-dimethylpiperazin-1-yl)-9-chloro-10-(2,4-difluorophenyl)-2,3-dihydro-5H-[1,4]oxazino[2,3,4-ij]quinazolin-5-one]
14 | 71.8 | C=CC(=O)N1C[C@H](C)N(c2nc(=O)n3c4c(c(-c5ccc(F)cc5F)c(Cl)cc24)OC[C@H]3CCCN2CC(C(=O)NC3CC3)C2)C[C@H]1C [Example 273, 1-(3-((3R)-7-((2S,5R)-4-acryloyl-2,5-dimethylpiperazin-1-yl)-9-chloro-10-(2,4-difluorophenyl)-5-oxo-2,3-dihydro-5H-[1,4]oxazino[2,3,4-ij]quinazolin-3-yl)propyl)-N-cyclopropylazetidine-3-carboxamide]
15 | 67 | C=CC(=O)N1C[C@H](C)N(c2nc(=O)n3c4c(c(-c5ccc(F)cc5F)c(Cl)cc24)OC[C@@H]3CN2CCN(C)CC2=O)C[C@H]1C [Example 274, (3S)-7-((2S,5R)-4-acryloyl-2,5-dimethylpiperazin-1-yl)-9-chloro-10-(2,4-difluorophenyl)-3-((4-methyl-2-oxopiperazin-1-yl)methyl)-2,3-dihydro-5H-[1,4]oxazino[2,3,4-ij]quinazolin-5-one]
16 | 89.6 | C=CC(=O)N1CCN(c2nc(=O)n3c4c(c(-c5ccc(F)cc5F)c(Cl)cc24)OCC3)[C@@H](C)C1 [Example 275, 7-((S)-4-acryloyl-2-methylpiperazin-1-yl)-9 chloro-10-(2,4-difluorophenyl)-2,3-dihydro-5H-[1,4]oxazino[2,3,4-ij]quinazolin-5-one]
17 | 73.5 | C=CC(=O)N1C[C@H](C)N(c2nc(=O)n3c4c(c(-c5ccc(F)cc5F)c(Cl)cc24)OC[C@@H]3COC2CCN(C)CC2)C[C@H]1C [Example 276, (3S)-7-((2S,5R)-4-acryloyl-2,5-dimethylpiperazin-1-yl)-9-chloro-10-(2,4-difluorophenyl)-3-(((1-methylpiperidin-4-yl)oxy)methyl)-2H-[1,4]oxazino[2,3,4-ij]quinazolin-5(3H)-one]
18 | 76.9 | C=CC(=O)N1C[C@H](C)N(c2nc(=O)n3c4c(c(-c5ccc(F)cc5F)c(Cl)cc24)OC[C@@H]3COC[C@H]2CCCN2C)C[C@H]1C [Example 277, (3S)-7-((2S,5R)-4-acryloyl-2,5-dimethylpiperazin-1-yl)-9-chloro-10-(2,4-difluorophenyl)-3-((((R)-1-methylpyrrolidin-2-yl)methoxy)methyl)-2H-[1,4]oxazino[2,3,4-ij]quinazolin-5(3H)-one]
19 | 98.3 | C=CC(=O)N1C[C@H](C)N(c2nc(=O)n3c4c(c(-c5ccc(F)cc5F)c(Cl)cc24)OC[C@H]3CCCN2CCC(C(=O)NC3CC3)CC2)C[C@H]1C [Example 278]
20 | 97.5 | C=CC(=O)N1C[C@H](C)N(c2nc(=O)n3c4c(c(-c5ccc(F)cc5F)c(Cl)cc24)OC[C@H]3CCCN2CC(F)C2)C[C@H]1C [Example 279, (3R)-7-((2S,5R)-4-acryloyl-2,5-dimethylpiperazin-1-yl)-9-chloro-10-(2,4-difluorophenyl)-3-(3-(3-fluoroazetidin-1-yl)propyl)-2,3-dihydro-5H-[1,4]oxazino[2,3,4-ij]quinazolin-5-one]

Row | SMILES | % CAF @ 10 μM,1 h [%]
21 | C=CC(=O)N1C[C@H](C)N(c2nc(=O)n3c4c(c(-c5ccc(F)cc5F)c(Cl)cc24)O[C@H](CCCN2C4CCC2COC4)C3)C[C@H]1C [Example 261, (2R)-2-(3-(3-oxa-8-azabicyclo[3.2.1]octan-8-yl)propyl)-7-((2S,5R)-4-acryloyl-2,5-dimethylpiperazin-1-yl)-9-chloro-10-(2,4-difluorophenyl)-2,3-dihydro-5H-[1,4]oxazino[2,3,4-ij]quinazolin-5-one] | 21.1
22 | C=CC(=O)N1C[C@H](C)N(c2nc(=O)n3c4c(c(-c5ccc(F)cc5F)c(Cl)cc24)O[C@@H](CCCN2C4CCC2COC4)C3)C[C@H]1C [Example 262, (2S)-2-(3-(3-oxa-8-azabicyclo[3.2.1]octan-8-yl)propyl)-7-((2S,5R)-4-acryloyl-2,5-dimethylpiperazin-1-yl)-9-chloro-10-(2,4-difluorophenyl)-2,3-dihydro-5H-[1,4]oxazino[2,3,4-ij]quinazolin-5-one] | 31.6
